The test concerns PABPC1 PABC. In kind it is binding, human. To be noted: DMS-BM library, bait PABPC1 PABC, row aa = residue at this position; for DMS-derived PSSM value, position F11 / DMS-derived PSSM value (averaged), position F9: F = wild type; for DMS-derived PSSM value, position L4: L = wild type.
The mark [1] stands for this setting: prey ATXN2, peptide TLNPNAKEFNPRSFSQ, P = wild type.
[2] abbreviates: prey ATXN2, peptide TLNPNAKEFNPRSFSQ, K = wild type.
Setting [3] is: prey ATXN2, TLNPNAKEFNPRSF(averaged) over the two overlapping peptides, R = wild type.
[4] abbreviates: prey ATXN2, peptide KSTLNPNAKEFNPRSF
Setting [5] is: prey ATXN2, TLNPNAKEFNPRSF(averaged) over the two overlapping peptides, A = wild type.
Where [6] appears, read: prey ATXN2, TLNPNAKEFNPRSF(averaged) over the two overlapping peptides, P = wild type.
Setting [7] is: prey ATXN2, peptide TLNPNAKEFNPRSFSQ, N = wild type.
Setting [8] is: prey ATXN2, TLNPNAKEFNPRSF(averaged) over the two overlapping peptides, N = wild type.
The mark [9] stands for this setting: prey ATXN2, peptide KSTLNPNAKEFNPRSF, R = wild type.
[10] abbreviates: prey ATXN2, peptide KSTLNPNAKEFNPRSF, A = wild type.
Where [11] appears, read: prey ATXN2, peptide TLNPNAKEFNPRSFSQ, E = wild type.
The mark [12] stands for this setting: prey ATXN2, peptide KSTLNPNAKEFNPRSF, T = wild type.
Where [13] appears, read: prey ATXN2, peptide TLNPNAKEFNPRSFSQ, S = wild type.
Setting [14] is: prey ATXN2, TLNPNAKEFNPRSF(averaged) over the two overlapping peptides.
[15] abbreviates: prey ATXN2, peptide KSTLNPNAKEFNPRSF, S = wild type.
Where [16] appears, read: prey ATXN2, peptide KSTLNPNAKEFNPRSF, P = wild type.
The mark [17] stands for this setting: prey ATXN2, peptide KSTLNPNAKEFNPRSF, N = wild type.

Read-outs that look alike come from different tables or passages of the source.

For TLNPNAKEFNPRSFSQ P4T (TLNTNAKEFNPRSFSQ), the “DMS-derived PSSM value, position P4” value under setting [1] worked out at 0.02934.
TLNPNAKEFNPRSFSQ K7W (TLNPNAWEFNPRSFSQ): under setting [2], the “DMS-derived PSSM value, position K7” value came out at 0.03322.
On to “TLNPNAKEFNPRSF(averaged) R12H (TLNPNAKEFNPHSF)”, for which the “DMS-derived PSSM value (averaged), position R12” value under setting [3] is 0.1075.
Consider “KSTLNPNAKEFNPRSF F11V (KSTLNPNAKEVNPRSF)”, for which the “DMS-derived PSSM value, position F11” value under setting [4] was 0.
In the case of “TLNPNAKEFNPRSF(averaged) A6E (TLNPNEKEFNPRSF)”, the “DMS-derived PSSM value (averaged), position A6” value under setting [5] was 0.
As to “TLNPNAKEFNPRSF(averaged) P4R (TLNRNAKEFNPRSF)”, under setting [6], the “DMS-derived PSSM value (averaged), position P4” value came out at 0.
On to “TLNPNAKEFNPRSFSQ N10S (TLNPNAKEFSPRSFSQ)”, for which, under setting [7], the “DMS-derived PSSM value, position N10” value amounted to 0.03126.
Take “KSTLNPNAKEFNPRSF E10V (KSTLNPNAKVFNPRSF)”: under “prey ATXN2, peptide KSTLNPNAKEFNPRSF, E = wild type”, the “DMS-derived PSSM value, position E10” value turned out to be 0.1837.
On to “TLNPNAKEFNPRSF(averaged) N3E (TLEPNAKEFNPRSF)”, for which the “DMS-derived PSSM value (averaged), position N3” value under setting [8] was found to be 0.
In the case of “KSTLNPNAKEFNPRSF R14S (KSTLNPNAKEFNPSSF)”, the “DMS-derived PSSM value, position R14” value under setting [9] turned out to be 0.06387.
Turning to KSTLNPNAKEFNPRSF A8M (KSTLNPNMKEFNPRSF), the “DMS-derived PSSM value, position A8” value under setting [10] came out at 0.
For KSTLNPNAKEFNPRSF L4A (KSTANPNAKEFNPRSF), the “DMS-derived PSSM value, position L4” value under setting [4] is listed as 0.
As for TLNPNAKEFNPRSFSQ E8N (TLNPNAKNFNPRSFSQ), under setting [11], the “DMS-derived PSSM value, position E8” value was 0.1259.
On to KSTLNPNAKEFNPRSF T3H (KSHLNPNAKEFNPRSF), for which the “DMS-derived PSSM value, position T3” value under setting [12] was 0.01262.
For “TLNPNAKEFNPRSFSQ R12E (TLNPNAKEFNPESFSQ)”, under “prey ATXN2, peptide TLNPNAKEFNPRSFSQ, R = wild type”, the “DMS-derived PSSM value, position R12” value is listed as 0.01629.
Regarding “TLNPNAKEFNPRSF(averaged) N5L (TLNPLAKEFNPRSF)”, the “DMS-derived PSSM value (averaged), position N5” value under setting [8] was determined as 0.05209.
Take TLNPNAKEFNPRSFSQ N5Y (TLNPYAKEFNPRSFSQ): the “DMS-derived PSSM value, position N5” value under setting [7] is 0.002973.
On to “KSTLNPNAKEFNPRSF R14V (KSTLNPNAKEFNPVSF)”, for which the “DMS-derived PSSM value, position R14” value under setting [9] is reported as 0.03521.
Regarding KSTLNPNAKEFNPRSF A8R (KSTLNPNRKEFNPRSF), under setting [10], the “DMS-derived PSSM value, position A8” value is 0.
For the substance “TLNPNAKEFNPRSF(averaged) S13G (TLNPNAKEFNPRGF)”, where the note is “prey ATXN2, TLNPNAKEFNPRSF(averaged) over the two overlapping peptides, S = wild type”, the “DMS-derived PSSM value (averaged), position S13” value amounted to 0.08376.
For “TLNPNAKEFNPRSFSQ S13Q (TLNPNAKEFNPRQFSQ)”, the “DMS-derived PSSM value, position S13” value under setting [13] is reported as 0.0185.
In the case of “TLNPNAKEFNPRSF(averaged) A6Y (TLNPNYKEFNPRSF)”, the “DMS-derived PSSM value (averaged), position A6” value under setting [5] is 0.
“TLNPNAKEFNPRSF(averaged) T1G (GLNPNAKEFNPRSF)”: where the note is “prey ATXN2, TLNPNAKEFNPRSF(averaged) over the two overlapping peptides, T = wild type”, the “DMS-derived PSSM value (averaged), position T1” value is given as 0.09.
Take “TLNPNAKEFNPRSF(averaged) P4M (TLNMNAKEFNPRSF)”: the “DMS-derived PSSM value (averaged), position P4” value under setting [6] worked out at 0.0005819.
Regarding “TLNPNAKEFNPRSF(averaged) K7S (TLNPNASEFNPRSF)”, the “DMS-derived PSSM value (averaged), position K7” value (prey ATXN2, TLNPNAKEFNPRSF(averaged) over the two overlapping peptides, K = wild type) came to 0.03571.
Consider TLNPNAKEFNPRSFSQ N3Y (TLYPNAKEFNPRSFSQ), for which the “DMS-derived PSSM value, position N3” value under setting [7] turned out to be 0.
Regarding “TLNPNAKEFNPRSFSQ N10F (TLNPNAKEFFPRSFSQ)”, the “DMS-derived PSSM value, position N10” value under setting [7] stood at 0.002727.
For KSTLNPNAKEFNPRSF T3V (KSVLNPNAKEFNPRSF), the “DMS-derived PSSM value, position T3” value under setting [12] is listed as 0.2131.
Turning to “TLNPNAKEFNPRSF(averaged) F9H (TLNPNAKEHNPRSF)”, under setting [14], the “DMS-derived PSSM value (averaged), position F9” value is reported as 0.
With “TLNPNAKEFNPRSFSQ P11F (TLNPNAKEFNFRSFSQ)”, the “DMS-derived PSSM value, position P11” value under setting [1] worked out at 0.1255.
Take “KSTLNPNAKEFNPRSF S15E (KSTLNPNAKEFNPREF)”: the “DMS-derived PSSM value, position S15” value under setting [15] is reported as 0.02092.
For “TLNPNAKEFNPRSF(averaged) R12K (TLNPNAKEFNPKSF)”, under setting [3], the “DMS-derived PSSM value (averaged), position R12” value is 0.01002.
On to “KSTLNPNAKEFNPRSF P13W (KSTLNPNAKEFNWRSF)”, for which the “DMS-derived PSSM value, position P13” value under setting [16] turned out to be 0.01574.
Turning to “TLNPNAKEFNPRSF(averaged) N10P (TLNPNAKEFPPRSF)”, under setting [8], the “DMS-derived PSSM value (averaged), position N10” value was 0.03074.
Regarding “TLNPNAKEFNPRSF(averaged) N10G (TLNPNAKEFGPRSF)”, the “DMS-derived PSSM value (averaged), position N10” value under setting [8] is given as 0.02059.
For “TLNPNAKEFNPRSF(averaged) N10W (TLNPNAKEFWPRSF)”, under setting [8], the “DMS-derived PSSM value (averaged), position N10” value worked out at 0.1093.
On to “TLNPNAKEFNPRSF(averaged) R12L (TLNPNAKEFNPLSF)”, for which, under setting [3], the “DMS-derived PSSM value (averaged), position R12” value stood at 0.02116.
For TLNPNAKEFNPRSFSQ E8I (TLNPNAKIFNPRSFSQ), the “DMS-derived PSSM value, position E8” value under setting [11] is listed as 0.01296.
As for KSTLNPNAKEFNPRSF P6T (KSTLNTNAKEFNPRSF), the “DMS-derived PSSM value, position P6” value under setting [16] is reported as 0.001755.
Consider KSTLNPNAKEFNPRSF S2E (KETLNPNAKEFNPRSF), for which the “DMS-derived PSSM value, position S2” value under setting [15] is on record as 0.01242.
On to TLNPNAKEFNPRSFSQ P4S (TLNSNAKEFNPRSFSQ), for which, under setting [1], the “DMS-derived PSSM value, position P4” value came to 0.01574.
Take TLNPNAKEFNPRSFSQ P4V (TLNVNAKEFNPRSFSQ): the “DMS-derived PSSM value, position P4” value under setting [1] amounted to 0.4281.
For the substance TLNPNAKEFNPRSFSQ N3D (TLDPNAKEFNPRSFSQ), under setting [7], the “DMS-derived PSSM value, position N3” value came to 0.1652.
With “TLNPNAKEFNPRSF(averaged) N10E (TLNPNAKEFEPRSF)”, under setting [8], the “DMS-derived PSSM value (averaged), position N10” value is 0.03135.
As for “TLNPNAKEFNPRSFSQ S15T (TLNPNAKEFNPRSFTQ)”, the “DMS-derived PSSM value, position S15” value under setting [13] came out at 0.0005737.
For the substance “KSTLNPNAKEFNPRSF F11L (KSTLNPNAKELNPRSF)”, the “DMS-derived PSSM value, position F11” value under setting [4] came to 0.
“TLNPNAKEFNPRSF(averaged) N3G (TLGPNAKEFNPRSF)”: the “DMS-derived PSSM value (averaged), position N3” value under setting [8] amounted to 0.
For the substance “TLNPNAKEFNPRSF(averaged) F9W (TLNPNAKEWNPRSF)”, the “DMS-derived PSSM value (averaged), position F9” value under setting [14] was found to be 0.4279.
In the case of “TLNPNAKEFNPRSFSQ N10D (TLNPNAKEFDPRSFSQ)”, under setting [7], the “DMS-derived PSSM value, position N10” value was 0.08868.
Take “TLNPNAKEFNPRSFSQ S15L (TLNPNAKEFNPRSFLQ)”: the “DMS-derived PSSM value, position S15” value under setting [13] is listed as 0.001672.
With KSTLNPNAKEFNPRSF L4Q (KSTQNPNAKEFNPRSF), the “DMS-derived PSSM value, position L4” value under setting [4] is 0.
Turning to “TLNPNAKEFNPRSFSQ P11I (TLNPNAKEFNIRSFSQ)”, under setting [1], the “DMS-derived PSSM value, position P11” value worked out at 0.0006115.
Turning to “TLNPNAKEFNPRSFSQ S13G (TLNPNAKEFNPRGFSQ)”, under setting [13], the “DMS-derived PSSM value, position S13” value amounted to 0.1675.
With “KSTLNPNAKEFNPRSF S15P (KSTLNPNAKEFNPRPF)”, under setting [15], the “DMS-derived PSSM value, position S15” value was found to be 0.04178.
With TLNPNAKEFNPRSFSQ K7M (TLNPNAMEFNPRSFSQ), the “DMS-derived PSSM value, position K7” value under setting [2] worked out at 0.0004181.
Take “TLNPNAKEFNPRSF(averaged) N3I (TLIPNAKEFNPRSF)”: under setting [8], the “DMS-derived PSSM value (averaged), position N3” value is listed as 0.
For “KSTLNPNAKEFNPRSF N12F (KSTLNPNAKEFFPRSF)”, the “DMS-derived PSSM value, position N12” value under setting [17] turned out to be 0.05323.
As for TLNPNAKEFNPRSFSQ A6E (TLNPNEKEFNPRSFSQ), where the note is “prey ATXN2, peptide TLNPNAKEFNPRSFSQ, A = wild type”, the “DMS-derived PSSM value, position A6” value worked out at 0.
Regarding “KSTLNPNAKEFNPRSF R14I (KSTLNPNAKEFNPISF)”, the “DMS-derived PSSM value, position R14” value under setting [9] amounted to 0.04837.
As for KSTLNPNAKEFNPRSF T3Q (KSQLNPNAKEFNPRSF), the “DMS-derived PSSM value, position T3” value under setting [12] came to 0.
As for “TLNPNAKEFNPRSF(averaged) P4S (TLNSNAKEFNPRSF)”, the “DMS-derived PSSM value (averaged), position P4” value under setting [6] stood at 0.01466.
Take KSTLNPNAKEFNPRSF N7I (KSTLNPIAKEFNPRSF): under setting [17], the “DMS-derived PSSM value, position N7” value came out at 0.5578.
With KSTLNPNAKEFNPRSF L4V (KSTVNPNAKEFNPRSF), under setting [4], the “DMS-derived PSSM value, position L4” value is recorded as 0.01089.

The values are drawn from article PMC12102759 (Protein Science : A Publication of the Protein Society, 2025).
